What was measured:
Type in all cases: physicochemical
[1] = Quantum yield and quantum efficiency of photorelease on irradiation; details: for εΦ (quantum efficiency): product of extinction coefficient and quantum yield; for Φ (quantum yield): solutions in methanol, λirr 365, 490, 507 nm
Procedure: A solution of the given compound (3.0 mL) in a matched 1.0 cm quartz PTFE screw-cap fluorescence cuvette equipped with a stir bar was irradiated with a light source (32 LEDs emitting at the selected wavelength: λmax=365, 490, 507 nm; the bandwidths at half height=30 nm; high-pressure 450 W mercury-xenon arc lamp with a monochromator with 200-1600 nm grating set to 365±0.5 nm). The reaction progress was monitored by UV-vis spectrometry using a diode-array spectrophotometer in a kinetic mode.
Photodegradation quantum yields for both aerated and degassed (freeze-pump-thaw technique; 3 cycles) solutions in methanol were determined at λirr=365 (LEDs and mercury-xenon arc lamp), 490 nm (LEDs), and 507 nm (LEDs) with xanthene-9-carboxylic acidl and BODIPY-CORM2 as actinometers; most values were cross-checked using ferrioxalate3 at λirr=365 nm. The data were processed using single value decomposition (SVD) software assuming the first-order rate law. The amount of absorbed light was calculated from the whole emission spectrum of the light source. […] All quantum yield measurements were repeated at least 6 times with independently prepared samples.
(§1) The observed substrate release rate as a function of photolysis time is quantified by the quantum efficiency parameter (εϕ), which is the product of the extinction coefficient at the irradiation wavelength (E) and the quantum yield (ϕ). Extinction coefficients for compounds 1-7 were determined by UV-Vis spectroscopy (see Table 1).

[2] = Fluorescence emission spectroscopy; details: emission maximum
Excerpt: (§2) All manipulation with photosensitive samples were accomplished under the red light (λ>600 nm). In the spectroscopy measurements, the lowest possible intensity of incident light was used; the spectroscopic identity of the samples was confirmed after each measurement to ensure that no unwanted photodegradation processes occurred. All measurements were accomplished using fresh solutions prepared in the dark. ^1H and ^13C NMR spectra were obtained in CDCl3 on 101, 125, 400 and 500 MHz spectrometers. ^1H chemical shifts are reported in ppm relative to the tetramethylsilane signal (TMS, δ=0.00 ppm), using the residual solvent signal as an internal reference. ^13C NMR chemical shifts are reported in ppm relative to the CDCl3 signal as an internal standard. IR spectra were recorded on an FTIR spectrophotometer. Mass spectra (MS) and high resolution mass spectra (HRMS) were recorded using an ESI and APCI techniques. Absorption spectra and the molar absorption coefficients were obtained on a UV-vis spectrometer with matched 1.0-cm quartz cells. […] A nanosecond flash lamp (filled with H2) was used to determine the fluorescence lifetimes. The data obtained were deconvolved from the measured decay curves of the sample and the instrumental response function. The quantum yields of fluorescence were obtained using a calibrated integration sphere.

[3] = UV-Vis absorption spectroscopy (absorption maximum, extinction coefficient); details: for λmax: absorption maximum, UV-vis; for ε (extinction coefficient): determined by UV-Vis spectroscopy, in M-1cm-1 (unit assumed)
Excerpt: as §2, §1

Molecule | εΦ (quantum efficiency) [1] | Φ (quantum yield) [1] | λem [2] [nm] | λmax [3] [nm] | ε (extinction coefficient) [3]
2,6-Diiodo-4,4′-dimethyl-8-chloro ethyl-1,3,5,7-tetramethyl-4-bora-3a,4a-diaza-s-indacene [Compound 5] | 59,280 M^−1cm^−1 | 0.95 | 573 | 542 | 62,400
CC1=CC(C)=[N+]2C1=C(CCl)c1c(C)cc(C)n1[B-]2(C)C [Compound 1, 4,4′-Dimethyl-8-chloromethyl-1,3,5,7-tetramethyl-4-bora-3a,4a-diaza-s-indacene] | 41,194 M^−1cm^−1 | 0.68 | 556 | 519 | 60,580
CC1=CC(C)=[N+]2C1=C(COC(=O)Cc1ccccc1)c1c(C)cc(C)n1[B-]2(C)C [Compound 2, 4,4′-Dimethyl-8-methyl(2-phenylacetate)-1,3,5,7-tetramethyl-4-bora-3a,4a-diaza-s-indacene] | 7,398 M^−1cm^−1 | 0.11 | 550 | 512 | 68,500
CC[B-]1(CC)n2c(C)cc(C)c2C(COC(=O)Cc2ccccc2)=C2C(C)=CC(C)=[N+]21 [Compound 3, 4,4′-Diethyl-8-methyl-(2-phenylacetate)-1,3,5,7-tetramethyl-4-bora-3a,4a-diaza-s-indacene] | 4,424 M^−1cm^−1 | 0.08 | 550 | 513 | 55,300
CC1=CC(C)=[N+]2C1=C(COC(=O)Cc1ccccc1)c1c(C)cc(C)n1[B-]2(c1ccccc1)c1ccccc1 [Compound 4, 4,4′-Diphenyl-8-methyl-(2-phenylacetate)-1,3,5,7-tetramethyl-4-bora-3a,4a-diaza-s-indacene] | 583 M⁻¹ cm⁻¹ | 0.01 | 562 | 517 | 58,300
CC1=C(I)C(C)=[N+]2C1=C(COC(=O)Cc1ccccc1)c1c(C)c(I)c(C)n1[B-]2(C)C [Compound 6, 2,6-Diiodo-4,4′-dimethyl-8-methyl-(2-phenylacetate)-1,3,5,7-tetramethyl-4-bora-3a,4a-diaza-s-indacene] | 16,996 M^−1cm^−1 | 0.28 | 572 | 538 | 60,700

Source: patent publication US10493153B2, “Alkylated photoremovable protecting groups and uses thereof” (Iowa State University Research Foundation, Inc., priority 2018, dated 2019)
